From patent US12428406B2 (PMV Pharmaceuticals, Inc., priority 2019, dated 2025)

Biological target: T1, p53 Y220C (Homo sapiens, UniProt P04637, Y220C)
T1 construct: The recombinant protein was a truncation mutant containing only amino acids 94-312 of p53; made in house; host or cells: E. coli
Assay: In vitro DNA binding activity assay (HTRF / TR-FRET): stabilization of p53 Y220C and increase of its DNA binding activity
Format: biochemical
Conditions: recombinant His-tagged p53 Y220C DNA binding domain (aa 94-312), biotin-labeled consensus DNA, incubated at 27° C. or 29° C. for 60 min
Procedure, shortened: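 E. coli His-p53 Y220C + biotin consensus DNA; anti-His-APC/SA-Eu TR-FRET. SC150 vs no-compound.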

T1 sequence (P04637 94-312, change not shown): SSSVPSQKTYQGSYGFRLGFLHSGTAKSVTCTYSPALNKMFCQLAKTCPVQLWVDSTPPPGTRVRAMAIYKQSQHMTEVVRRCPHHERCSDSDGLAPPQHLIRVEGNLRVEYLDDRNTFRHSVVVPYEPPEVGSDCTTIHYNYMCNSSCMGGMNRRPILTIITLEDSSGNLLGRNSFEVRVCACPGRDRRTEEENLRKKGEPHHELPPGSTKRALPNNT

| Compound | SC150 (concentration of the compound required to increase the DNA binding activity by 50%) |
| --- | --- |
| COc1cc(S(C)(=O)=O)ccc1NCC#Cc1cc2c(N[C@H]3CC[C@H](N4CCOCC4)CC3)cccc2n1CC(C)C [Compound 179A, 2-{3-[(4-methane-sulfonyl-2-methoxy-phenyl)amino]prop-1-yn-1-yl}-1-(2-methyl-propyl)-N-[(1R,4R)-4-(morpholin-4-yl)cyclohexyl]-1H-indol-4-amine] | ++ (++ = 0.05 μM ≤ SC150 < 0.1 μM) |
| COc1cc(S(C)(=O)=O)ccc1NCC#Cc1cc2c(N[C@H]3CC[C@H](N4CCOCC4)CC3)cccc2n1CC(F)F [Compound 180A, 1-(2,2-difluoroethyl)-2-{3-[(4-methane-sulfonyl-2-methoxy-phenyl)amino]prop-1-yn-1-yl}-N-[(1R,4R)-4-(morpholin-4-yl)cyclo-hexyl]-1H-indol-4-amine] | + (+ = 0 μM ≤ SC150 < 0.05 μM) |
| CS(=O)(=O)c1ccc(NCC#Cc2cc3c(N[C@H]4CC[C@@H](N5CCOCC5)CC4)cccc3n2CC(F)(F)F)c(OCC#N)c1 [Compound 186A, 2-(5-methanesulfonyl-2-{[3-(4-{[(1S,4S)-4-(morpholin-4-yl)cyclohexyl]amino}-1-(2,2,2-trifluoroethyl)-1H-indol-2-yl)prop-2-yn-1-yl]amino}phenoxy)acetonitrile] | + (+ = 0 μM ≤ SC150 < 0.05 μM) |
| CNS(=O)(=O)c1ccc(NCC#Cc2cc3c(N[C@H]4CC[C@H](N5CCOCC5)CC4)cccc3n2CC(F)(F)F)c(OC)c1 [Compound 187A, 3-methoxy-N-methyl-4-{[3-(4-{[(1R,4R)-4-(morpholin-4-yl)cyclohexyl]amino}-1-(2,2,2-trifluoroethyl)-1H-indol-2-yl)prop-2-yn-1-yl]amino}benzene-1-sulfonamide] | + (+ = 0 μM ≤ SC150 < 0.05 μM) |

Continued, values first:

| SC150 (concentration of the compound required to increase the DNA binding activity by 50%) | Compound |
| --- | --- |
| + (+ = 0 μM ≤ SC150 < 0.05 μM) | CCNC(=O)c1ccc(NCC#Cc2cc3c(N[C@H]4CC[C@H](N5CCOCC5)CC4)cccc3n2CC(F)(F)F)c(OC)c1 [Compound 183A, N-ethyl-3-methoxy-4-{[3-(4-{[(1R,4R)-4-(morpholin-4-yl)cyclohexyl]amino}-1-(2,2,2-trifluoroethyl)-1H-indol-2-yl)prop-2-yn-1-yl]amino}benzamide] |
| + (+ = 0 μM ≤ SC150 < 0.05 μM) | CS(=O)(=O)c1ccc(NCC#Cc2cc3c(N[C@H]4CC[C@H](N5CCOCC5)CC4)cccc3n2CC(F)(F)F)c(OCC#N)c1 [Compound 185A, 2-(5-methanesulfonyl-2-{[3-(4-{[(1R,4R)-4-(morpholin-4-yl)cyclohexyl]amino}-1-(2,2,2-trifluoroethyl)-1H-indol-2-yl)prop-2-yn-1-yl]amino}phenoxy)acetonitrile] |
| + (+ = 0 μM ≤ SC150 < 0.05 μM) | COc1cc(S(C)(=O)=O)ccc1NCC#Cc1cc2c(N[C@H]3CC[C@H](N4CC(S(C)(=O)=O)C4)CC3)cccc2n1CC(F)(F)F [Compound 188A, 2-{3-[(4-methane-sulfonyl-2-methoxy-phenyl)amino]prop-1-yn-1-yl}-N-[(1R,4R)-4-(3-methanesulfonyl-azetidin-1-yl)cyclohexyl]-1-(2,2,2-trifluoroethyl)-1H-indol-4-amine] |
| + (+ = 0 μM ≤ SC150 < 0.05 μM) | COc1cc(S(N)(=O)=O)ccc1NCC#Cc1cc2c(N[C@H]3CC[C@H](N4CC(S(C)(=O)=O)C4)CC3)cccc2n1CC(F)(F)F [Compound 190A, 3-methoxy-4-{[3-(4-{[(1R,4R)-4-(3-methanesulfonyl-azetidin-1-yl)cyclo-hexyl]amino}-1-(2,2,2-trifluoroethyl)-1H-indol-2-yl)prop-2-yn-1-yl]amino}benzene-1-sulfonamide] |
